Consider nine compounds from US11077090B2, “Compounds and compositions and uses thereof” (Sunovion Pharmaceuticals Inc., priority 2016, dated 2021).

The subject of this assay is compound-treated mice. The assay is described as follows: Neuropharmacological assay (SmartCube): behavioral activity signature and minimal effective dose. Type of assay: in vivo. The note with it: for minimal effective dose: Mus musculus, ip, MED = dose having 50% or more total activity; for AD: ADHD (probability of activity signature) / AG: analgesic (probability of activity signature) / AX: anxiolytic (probability of activity signature) / CE: cognitive enhancer (probability of activity signature) / DP: anti-depressant (probability of activity signature) / MS: mood stabilizer (probability of activity signature) / PS: anti-psychotic (probability of activity signature) / SD: sedative hypnotic (probability of activity signature) / UN: uncharacterized CNS activity (probability of activity signature): i.p. 15 min before test, most efficacious dose(s). The procedure, abridged:
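Video-recorded behavior is compared algorithmically against a reference-compound database, yielding class probabilities (best dose reported). Compounds given i.p. in NMP/PEG/propylene glycol 15 min pre-test at 3 doses; potency as MED, the dose (mpk, range usually 0.3–30) reaching ≥50% total activity.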

Where [1] appears, read: read-out: Potency: minimal effective dose (MED), binned.
Where [2] appears, read: read-out: Potency: minimal effective dose (MED).

Where a name gives a salt, the structure may show the parent alone. Read-outs that look alike come from different tables or passages of the source.

By minimal effective dose is commonly meant the smallest amount tested that counted as effective. On to `CN[C@@H]1CO[C@@H](C)c2ccccc21` (relative stereo) [Example 236, trans-N,1-dimethylisochroman-4-amine hydrochloride], for which the “AD: ADHD (probability of activity signature)” value (from here on “AD: ADHD”) was “+ (LOQ ≤ + <5%)”, the “AG: analgesic (probability of activity signature)” value (shortened to “AG: analgesic”) was “++ (5% ≤ ++ <25%)”, the “AX: anxiolytic (probability of activity signature)” value (“AX: anxiolytic” for short) is listed as “++ (5% ≤ ++ <25%)” and the “CE: cognitive enhancer (probability of activity signature)” value (“CE: cognitive enhancer” for short) was “+ (LOQ ≤ + <5%)”. Moreover, the “DP: anti-depressant (probability of activity signature)” value (“DP: anti-depressant” for short) is “++ (5% ≤ ++ <25%)”, the “MS: mood stabilizer (probability of activity signature)” value (from here on “MS: mood stabilizer”) is reported as “+ (LOQ ≤ + <5%)”, the “PS: anti-psychotic (probability of activity signature)” value (from here on “PS: anti-psychotic”) is given as “++ (5% ≤ ++ <25%)” and the “SD: sedative hypnotic (probability of activity signature)” value (“SD: sedative hypnotic” for short) is “+ (LOQ ≤ + <5%)”. The “UN: uncharacterized CNS activity (probability of activity signature)” value (“UN: uncharacterized CNS activity” below) was “++++ (50% ≤ ++++)”. Besides, the minimal effective dose under setting [1] fell in the range of 3 to 10 mg/kg.
As for `CC[C@@H]1OCc2ccc(C)cc2[C@H]1N` (single isomer, unassigned) [Example 178], the “AD: ADHD” value was “+ (LOQ ≤ + <5%)”, the “AG: analgesic” value was “++ (5% ≤ ++ <25%)”, the “AX: anxiolytic” value is reported as “++ (5% ≤ ++ <25%)” and the “CE: cognitive enhancer” value was “+ (LOQ ≤ + <5%)”. The “DP: anti-depressant” value was “++ (5% ≤ ++ <25%)”, the “MS: mood stabilizer” value was “+ (LOQ ≤ + <5%)”, the “PS: anti-psychotic” value is recorded as “++ (5% ≤ ++ <25%)” and the “SD: sedative hypnotic” value was “++ (5% ≤ ++ <25%)”. Besides, the “UN: uncharacterized CNS activity” value is “+++ (25% ≤ +++ <50%)”. Moreover, under setting [1], the minimal effective dose was 10 to 30 mg/kg.
Turning to `CC[C@@H]1OCc2ccc(C)cc2[C@@H]1N.Cl` (relative stereo) [Example 100, cis-3-Ethyl-6-methylisochroman-4-amine hydrochloride], the “AD: ADHD” value is reported as “+ (LOQ ≤ + <5%)”, the “AG: analgesic” value is “++ (5% ≤ ++ <25%)”, the “AX: anxiolytic” value is “++ (5% ≤ ++ <25%)” and the “CE: cognitive enhancer” value is “++ (5% ≤ ++ <25%)”. Besides, the “DP: anti-depressant” value is recorded as “++ (5% ≤ ++ <25%)”, the “MS: mood stabilizer” value is reported as “+ (LOQ ≤ + <5%)”, the “PS: anti-psychotic” value is on record as “+++ (25% ≤ +++ <50%)” and the “SD: sedative hypnotic” value was “++ (5% ≤ ++ <25%)”. Moreover, the “UN: uncharacterized CNS activity” value is “+++ (25% ≤ +++ <50%)”. Further, the minimal effective dose under setting [2] was under 3 mg/kg.
As to `CN[C@H]1COCc2ccc(OC)cc21` [Example 140], the “AD: ADHD” value is reported as “+ (LOQ ≤ + <5%)”, the “AG: analgesic” value was “++ (5% ≤ ++ <25%)”, the “AX: anxiolytic” value was “++ (5% ≤ ++ <25%)” and the “CE: cognitive enhancer” value was “++ (5% ≤ ++ <25%)”. The “DP: anti-depressant” value is listed as “++ (5% ≤ ++ <25%)”, the “MS: mood stabilizer” value is on record as “++ (5% ≤ ++ <25%)”, the “PS: anti-psychotic” value is recorded as “+++ (25% ≤ +++ <50%)” and the “SD: sedative hypnotic” value is listed as “+ (LOQ ≤ + <5%)”. Also, the “UN: uncharacterized CNS activity” value is on record as “+ (LOQ ≤ + <5%)”. The minimal effective dose under setting [2] lay in the range of 10 to 30 mg/kg.
As for `C[C@@H]1OC[C@H](N)c2ccccc21.Cl` (relative stereo) [Example 104, cis-1-Methylisochroman-4-amine hydrochloride], the “AD: ADHD” value was “+ (LOQ ≤ + <5%)”, the “AG: analgesic” value is “++ (5% ≤ ++ <25%)”, the “AX: anxiolytic” value was “++ (5% ≤ ++ <25%)” and the “CE: cognitive enhancer” value is reported as “++ (5% ≤ ++ <25%)”. Also, the “DP: anti-depressant” value is listed as “++ (5% ≤ ++ <25%)”, the “MS: mood stabilizer” value is given as “+ (LOQ ≤ + <5%)”, the “PS: anti-psychotic” value is listed as “++ (5% ≤ ++ <25%)” and the “SD: sedative hypnotic” value is recorded as “++ (5% ≤ ++ <25%)”. Further, the “UN: uncharacterized CNS activity” value was “+++ (25% ≤ +++ <50%)”. Also, the minimal effective dose under setting [2] fell in the range of 3 to 10 mg/kg.
As for `Cc1ccc2c(c1)CO[C@@H](C)[C@H]2N` [Example 189], the “AD: ADHD” value is reported as “+ (LOQ ≤ + <5%)”, the “AG: analgesic” value is recorded as “++ (5% ≤ ++ <25%)”, the “AX: anxiolytic” value was “++ (5% ≤ ++ <25%)” and the “CE: cognitive enhancer” value is “++ (5% ≤ ++ <25%)”. In addition, the “DP: anti-depressant” value is given as “++ (5% ≤ ++ <25%)”, the “MS: mood stabilizer” value is “+ (LOQ ≤ + <5%)”, the “PS: anti-psychotic” value was “++ (5% ≤ ++ <25%)” and the “SD: sedative hypnotic” value was “+ (LOQ ≤ + <5%)”. In addition, the “UN: uncharacterized CNS activity” value is on record as “+++ (25% ≤ +++ <50%)”. Further, the minimal effective dose under setting [1] lay in the range of 10 to 30 mg/kg.
As to `C[C@@H]1OCc2c(F)cccc2[C@@H]1N.Cl` [Example 215], the “AD: ADHD” value is listed as “+ (LOQ ≤ + <5%)”, the “AG: analgesic” value is recorded as “++ (5% ≤ ++ <25%)”, the “AX: anxiolytic” value was “+++ (25% ≤ +++ <50%)” and the “CE: cognitive enhancer” value was “++ (5% ≤ ++ <25%)”. The “DP: anti-depressant” value was “++ (5% ≤ ++ <25%)”, the “MS: mood stabilizer” value is “+ (LOQ ≤ + <5%)”, the “PS: anti-psychotic” value is “++ (5% ≤ ++ <25%)” and the “SD: sedative hypnotic” value was “++ (5% ≤ ++ <25%)”. Further, the “UN: uncharacterized CNS activity” value was “++++ (50% ≤ ++++)”. Also, the minimal effective dose under setting [1] was in the range of 3 to 10 mg/kg.
`C[C@H]1OCc2cccc(Cl)c2[C@@H]1N` [Example 159]: the “AD: ADHD” value is listed as “+ (LOQ ≤ + <5%)”, the “AG: analgesic” value is listed as “+ (LOQ ≤ + <5%)”, the “AX: anxiolytic” value is recorded as “+++ (25% ≤ +++ <50%)” and the “CE: cognitive enhancer” value was “+ (LOQ ≤ + <5%)”. Moreover, the “DP: anti-depressant” value was “+++ (25% ≤ +++ <50%)”, the “MS: mood stabilizer” value is on record as “+ (LOQ ≤ + <5%)”, the “PS: anti-psychotic” value is “+ (LOQ ≤ + <5%)” and the “SD: sedative hypnotic” value is reported as “+ (LOQ ≤ + <5%)”. The “UN: uncharacterized CNS activity” value was “++ (5% ≤ ++ <25%)”. The minimal effective dose under setting [1] lay within 3 to 10 mg/kg.
On to `COc1ccc2c(c1)[C@@H](N)[C@H](C)OC2` (single isomer, unassigned) [Example 172], for which the “AD: ADHD” value was “+ (LOQ ≤ + <5%)”, the “AG: analgesic” value is recorded as “++ (5% ≤ ++ <25%)”, the “AX: anxiolytic” value is given as “++ (5% ≤ ++ <25%)” and the “CE: cognitive enhancer” value was “+ (LOQ ≤ + <5%)”. The “DP: anti-depressant” value is “+ (LOQ ≤ + <5%)”, the “MS: mood stabilizer” value was “+ (LOQ ≤ + <5%)”, the “PS: anti-psychotic” value is listed as “++ (5% ≤ ++ <25%)” and the “SD: sedative hypnotic” value is reported as “+ (LOQ ≤ + <5%)”. Moreover, the “UN: uncharacterized CNS activity” value is listed as “+++ (25% ≤ +++ <50%)”. Further, the minimal effective dose under setting [1] was 10 to 30 mg/kg.
